Assay results: US20220259202A1, “1-(4-(AMINOMETHYL)BENZYL)-2-BUTYL-2H-PYRAZOLO[3,4-C]QUINOLIN-4-AMINE DERIVATIVES AND RELATED COMPOUNDS AS TOLL-LIKE RECEPTOR (TLR) 7/8 AGONISTS, AS WELL AS ANTIBODY DRUG CONJUGATES THEREOF FOR USE IN CANCER THERAPY AND DIAGNOSIS” (SUTRO BIOPHARMA, INC., priority 2019, published 2022)
pEC50: −log10 of the molar value.

Tests used:
Type in all cases: cell-based
[1] = target: T1, mouse TLR8 (Mus musculus, UniProt P58682); assay: HEK293 SEAP reporter assay, other TLRs (Biological Example 3); conditions: 16 hrs, up to 1 μM
T1 construct: host or cells: HEK293
T1 sequence (P58682 24-1032): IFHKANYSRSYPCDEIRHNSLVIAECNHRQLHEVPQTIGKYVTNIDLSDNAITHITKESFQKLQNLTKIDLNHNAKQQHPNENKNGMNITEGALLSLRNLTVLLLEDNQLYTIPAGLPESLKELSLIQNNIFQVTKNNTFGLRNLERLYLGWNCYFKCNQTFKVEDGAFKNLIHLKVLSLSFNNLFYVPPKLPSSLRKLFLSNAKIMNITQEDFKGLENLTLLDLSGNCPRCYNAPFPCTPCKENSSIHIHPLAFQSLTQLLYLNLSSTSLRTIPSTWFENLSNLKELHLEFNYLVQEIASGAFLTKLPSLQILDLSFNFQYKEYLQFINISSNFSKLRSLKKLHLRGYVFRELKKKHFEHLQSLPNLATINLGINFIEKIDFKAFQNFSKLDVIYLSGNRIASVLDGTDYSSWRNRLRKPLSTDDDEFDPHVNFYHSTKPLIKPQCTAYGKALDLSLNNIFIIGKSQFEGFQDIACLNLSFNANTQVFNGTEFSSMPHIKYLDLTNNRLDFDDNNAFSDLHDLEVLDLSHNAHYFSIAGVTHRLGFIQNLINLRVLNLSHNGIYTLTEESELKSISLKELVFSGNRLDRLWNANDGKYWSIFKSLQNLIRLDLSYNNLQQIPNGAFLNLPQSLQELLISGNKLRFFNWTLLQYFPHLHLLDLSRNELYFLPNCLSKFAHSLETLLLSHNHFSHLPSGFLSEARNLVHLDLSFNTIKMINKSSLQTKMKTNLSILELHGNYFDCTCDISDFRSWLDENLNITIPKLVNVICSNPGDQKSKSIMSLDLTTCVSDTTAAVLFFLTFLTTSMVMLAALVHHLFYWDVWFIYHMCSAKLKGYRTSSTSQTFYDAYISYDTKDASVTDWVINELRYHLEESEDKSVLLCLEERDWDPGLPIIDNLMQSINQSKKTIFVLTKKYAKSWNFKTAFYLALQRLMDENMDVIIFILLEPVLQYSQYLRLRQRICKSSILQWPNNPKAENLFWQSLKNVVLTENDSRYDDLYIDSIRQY

[2] = target: T2, mouse TLR2 (Mus musculus, UniProt Q9QUN7); assay: as above; conditions: 16 hrs, up to 1 μM
T2 construct: host or cells: HEK293
T2 sequence (Q9QUN7 25-784): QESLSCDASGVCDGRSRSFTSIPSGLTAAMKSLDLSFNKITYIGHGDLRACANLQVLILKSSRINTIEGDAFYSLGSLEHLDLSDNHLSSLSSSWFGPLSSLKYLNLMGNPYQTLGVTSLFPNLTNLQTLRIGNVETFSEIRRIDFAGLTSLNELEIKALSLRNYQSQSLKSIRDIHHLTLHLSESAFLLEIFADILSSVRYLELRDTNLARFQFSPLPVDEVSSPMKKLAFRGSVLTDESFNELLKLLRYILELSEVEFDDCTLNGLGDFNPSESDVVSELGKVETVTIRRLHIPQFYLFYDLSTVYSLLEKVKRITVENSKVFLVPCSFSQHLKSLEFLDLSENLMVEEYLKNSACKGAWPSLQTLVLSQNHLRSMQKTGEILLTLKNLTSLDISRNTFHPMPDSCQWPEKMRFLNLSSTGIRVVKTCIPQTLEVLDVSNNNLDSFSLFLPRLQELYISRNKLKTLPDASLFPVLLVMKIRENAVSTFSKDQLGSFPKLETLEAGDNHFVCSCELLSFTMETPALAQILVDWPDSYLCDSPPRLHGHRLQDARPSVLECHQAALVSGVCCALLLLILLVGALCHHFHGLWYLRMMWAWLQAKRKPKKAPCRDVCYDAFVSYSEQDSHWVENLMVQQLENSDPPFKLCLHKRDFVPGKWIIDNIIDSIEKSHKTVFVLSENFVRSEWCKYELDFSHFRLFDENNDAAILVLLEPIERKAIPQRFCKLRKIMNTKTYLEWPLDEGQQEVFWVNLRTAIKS

[3] = target: T3, mouse TLR5 (Mus musculus, UniProt Q9JLF7); assay: as above; conditions: 16 hrs, up to 1 μM
T3 construct: host or cells: HEK293
T3 sequence (Q9JLF7 27-859): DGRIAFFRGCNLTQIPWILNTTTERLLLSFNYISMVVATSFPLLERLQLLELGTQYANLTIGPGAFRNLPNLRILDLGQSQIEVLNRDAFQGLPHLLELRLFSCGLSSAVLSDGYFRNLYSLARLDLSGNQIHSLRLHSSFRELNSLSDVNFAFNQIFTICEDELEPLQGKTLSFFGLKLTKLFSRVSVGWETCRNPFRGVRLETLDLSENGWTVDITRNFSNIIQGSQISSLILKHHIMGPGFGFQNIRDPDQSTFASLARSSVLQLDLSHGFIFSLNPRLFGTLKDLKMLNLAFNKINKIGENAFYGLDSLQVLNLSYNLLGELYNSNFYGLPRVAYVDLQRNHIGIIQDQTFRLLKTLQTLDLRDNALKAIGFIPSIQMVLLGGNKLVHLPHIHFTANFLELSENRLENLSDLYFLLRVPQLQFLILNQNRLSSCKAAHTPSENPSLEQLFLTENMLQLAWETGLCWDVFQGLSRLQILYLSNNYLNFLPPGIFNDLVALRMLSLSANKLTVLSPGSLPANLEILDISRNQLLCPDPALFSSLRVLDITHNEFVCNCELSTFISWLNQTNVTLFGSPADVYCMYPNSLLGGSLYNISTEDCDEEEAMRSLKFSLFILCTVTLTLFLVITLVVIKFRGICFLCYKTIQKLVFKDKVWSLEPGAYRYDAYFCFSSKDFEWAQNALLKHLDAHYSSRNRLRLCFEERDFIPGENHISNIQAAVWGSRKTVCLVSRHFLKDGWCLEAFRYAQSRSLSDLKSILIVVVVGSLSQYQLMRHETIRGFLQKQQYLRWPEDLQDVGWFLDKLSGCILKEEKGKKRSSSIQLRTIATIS

[4] = tested on: mouse splenocytes; assay: Compound-induced cytokine release (ELISA); conditions: IL-6, MCP-1, TNFα and IP-10 (FIG. 6A-6D); 48 hr
Protocol: (§1) This example evaluates the ability of Compound 1 to induce cytokine release in human PBMCs, cyno PBMCs and mouse splenocytes. Compound A and resiquimod, above, were used as controls in the assays.
(§2) Human and cyno PBMCs, mouse splenocytes were isolated as described in previous example. On the day of the assay, 300k of PBMC or splenocytes in 50 μL of culture medium were seeded in 96-well cell culture plates. 50 μL of the test articles (formulated at 2× of starting concentration) were then added into the well. The cell mixtures were co-cultured in the presence of test articles and 10 μg/mL LPS-RS for 24 hrs (human PBMCs) or 48 hr (cyno PBMCs and mouse splenocytes). Released cytokines in cell culture medium were measured by ELISA.

[5] = tested on: human PBMCs; assay: Compound-induced cytokine release (ELISA); conditions: IL-6, MCP-1, IL1Ra (FIG. 4A-4C); 24 hrs
Protocol: as §1, §2

[6] = tested on: KB cells; assay: In vitro cytotoxicity, cell proliferation assay (Cell Titer-Glo); conditions: concentration up to 1 μM, 120 hrs
Protocol: The cytotoxicity of Compound 1 was tested in a cell proliferation assay on KB cells. KB cells were obtained from ATCC and were maintained in Ham's F-12: high glucose DMEM (50:50) (Corning) supplemented with 10% heat-inactivated fetal bovine serum (Corning), 1% Penicillin/Streptomycin (Corning) and 2 mmol/L-glutamax (Thermo Fisher Scientific). One day before the assay, KB cells were harvested with Accutase and a total of 625 cells were seeded in each well of a 384-well flat bottom white polystyrene plate. Compound 1 was formulated at 2-fold starting concentration in the cell culture medium. Serial dilutions of Compound 1 (1:4 serial dilution starting from 1000 nM) was added into treatment wells. Assay plates were cultured at 37° C. in a CO2 incubator for 120 hrs before assay. For cell viability measurement, 30 μL of Cell Titer-Glo® reagent (Promega Corp. Madison, Wis.) was added into each well, and plates were processed as per product instructions. Relative luminescence was measured on an ENVISION® plate reader (Perkin-Elmer; Waltham, Mass.). Relative luminescence readings were converted to percent viability using untreated cells as controls. Data was fitted with non-linear regression analysis, using a log(inhibitor) vs. response-variable slope, 4-parameter fit with GraphPad Prism (GraphPad v 5.0, Software; San Diego, California).

pEC50 [1] | pEC50 [2] | pEC50 [3] | Structure (SMILES) | cytokine release from mouse splenocytes [4] | cytokine release from human PBMCs [5] | cytotoxicity on KB cells [6]
< 6.00 | < 6.00 | < 6.00 | CCCCc1nc2c(N)nc3ccccc3c2n1Cc1ccc(CN)cc1 [Compound A, reference compound] |  |  | 
< 6.00 | < 6.00 | < 6.00 | CCCCn1nc2c(N)nc3ccccc3c2c1Cc1ccc(CN)cc1 [Compound 1, 1-(4-(aminomethyl)benzyl)-2-butyl-2H-pyrazolo[3,4-c]quinolin-4-amine] | stimulated strong | stimulated strong | did not show any cytotoxicity
